Details in all cases: treatment: drug + dasatinib (fixed dose, not stated); 5 days
Assay [1] has as its system ACHN. Kind of assay: AUC of dose-response viability curve, drug + dasatinib, normalised to DMSO (arbitrary (AUC of normalised viability)); higher = less growth inhibition. The protocol:
(§1)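 Primary HTS combination arm: 8 RCC cell lines treated with 8 doses (up to 10 uM) of each library drug plus a fixed dose of dasatinib (dose not stated) for 5 days; viability read by CellTiter-Glo and normalised to DMSO. GI50 was fitted with XLfit, AUC is the area under the dose-response curve, and minimum viability is the lowest fraction of DMSO viability across doses.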

Assay [2] concerns CAKI-1. Described as above. The protocol:
as §1

Assay [3] concerns SN12C. The assay is described as above. The protocol: as §1
For assay [4], the system named is 786-O. The assay is described as above. Here is the method: as §1
For assay [5], the system named is UO-31. The description is as above. Here is the method: as §1
The test system of assay [6] is A498. The description is as above. The protocol: as §1
The subject of assay [7] is 769-P. The description is as above. The protocol:
as §1

For assay [8], the system named is TK-10. The description is as above. The protocol:
as §1

For assay [9], the system named is ACHN. Kind of assay: GI50 of drug in presence of dasatinib; higher = less potent. The protocol:
as §1

Assay [10] relates to CAKI-1. The assay is described as above. The protocol:
as §1

The subject of assay [11] is SN12C. The assay is described as above. Here is the method:
as §1

Assay [12] concerns 786-O. The description is as above. The protocol: as §1
The test system of assay [13] is UO-31. The description is as above. Here is the method: as §1
The subject of assay [14] is A498. Described as above. The protocol:
as §1

The subject of assay [15] is 769-P. Described as above. Here is the method:
as §1

In assay [16] the test system is TK-10. The assay is described as above. The protocol: as §1
The subject of assay [17] is ACHN. Kind of assay: minimum viability across doses, drug + dasatinib, relative to DMSO (fraction); higher = less growth inhibition. The protocol:
as §1

Assay [18] has as its system CAKI-1. The assay is described as above. Here is the method: as §1
In assay [19] the test system is SN12C. Described as above. The protocol: as §1
For assay [20], the system named is 786-O. Described as above. The protocol:
as §1

Assay [21] has as its system UO-31. The description is as above. Here is the method:
as §1

The test system of assay [22] is A498. Described as above. The protocol: as §1
Assay [23] has as its system 769-P. The assay is described as above. The protocol: as §1
In assay [24] the test system is TK-10. The assay is described as above. The protocol: as §1

Molecules are shown by their SMILES.

Turning to `COc1ccc(-c2ccc3c(N4CCOC[C@@H]4C)nc(N4CCOC[C@@H]4C)nc3n2)cc1CO` [AZD8055] + Cc1nc(Nc2ncc(C(=O)Nc3c(C)cccc3Cl)s2)cc(N2CCN(CCO)CC2)n1 [dasatinib], the “AUC of dose-response viability curve” value with ACHN [1] came out at 0.585; in the assay on CAKI-1 [2] it was 0.988; with SN12C [3], 1.3; in the assay with 786-O [4] it was 0.846; with UO-31 [5], 1.29; in the assay on A498 [6], 1.68. In addition, the results for the “AUC of dose-response viability curve” value with 769-P [7] and with TK-10 [8] were 1.22 and 1.21, respectively. For the same molecule, the GI50 of drug in the assay on ACHN [9] was less than 3 nM; in the assay on CAKI-1 [10], 24 nM; in the assay with SN12C [11] it was 39.8 nM; with 786-O [12], 7.26 nM; in the assay on UO-31 [13], 65.2 nM; in the assay with A498 [14] it was 100 nM. For the same molecule, the GI50 of drug with 769-P [15] is 59.9 nM; with TK-10 [16], 36.9 nM. Also, the “minimum viability across doses” value with ACHN [17] is 0.044; with CAKI-1 [18], 0.0255; in the assay with SN12C [19], 0.135; with 786-O [20] it was 0.018; with UO-31 [21], 0.00778; in the assay on A498 [22] it was 0.182. In addition, the entries for the “minimum viability across doses” value in the assay with 769-P [23] and with TK-10 [24] were 0.0691 and 0.053, respectively.

With `FC(F)(F)c1ccc(Nc2nc3cc(Oc4ccnc(-c5ncc(C(F)(F)F)[nH]5)c4)ccc3[nH]2)cc1` [Raf265 derivative] + Cc1nc(Nc2ncc(C(=O)Nc3c(C)cccc3Cl)s2)cc(N2CCN(CCO)CC2)n1 [dasatinib], the “AUC of dose-response viability curve” value in the assay with ACHN [1] came out at 2.21; with CAKI-1 [2], 2.35; in the assay with SN12C [3] it was 2.47; in the assay with 786-O [4], 2.47; with UO-31 [5], 3.44; with A498 [6], 3.35. Besides, the “AUC of dose-response viability curve” value was determined as 2.37 in the assay with 769-P [7] and 2.73 with TK-10 [8]. Further, the GI50 of drug in the assay on ACHN [9] was 3300 nM; with CAKI-1 [10] it was 3550 nM; with SN12C [11], more than 10000 nM; in the assay on 786-O [12] it was 5020 nM; in the assay on UO-31 [13] it was more than 10000 nM; with A498 [14], more than 10000 nM. Moreover, the values for the GI50 of drug in the assay with 769-P [15] and with TK-10 [16] were 5010 nM and 9070 nM, respectively. Besides, the “minimum viability across doses” value in the assay on ACHN [17] came out at 0.137; in the assay with CAKI-1 [18], 0.173; with SN12C [19], 0.484; in the assay on 786-O [20], 0.241; in the assay on UO-31 [21] it was 0.551; in the assay on A498 [22], 0.633. The results for the “minimum viability across doses” value in the assay with 769-P [23] and in the assay on TK-10 [24] were 0.318 and 0.476, respectively.

On to `CC(C)(C)c1cnc(CSc2cnc(NC(=O)C3CCNCC3)s2)o1` + Cc1nc(Nc2ncc(C(=O)Nc3c(C)cccc3Cl)s2)cc(N2CCN(CCO)CC2)n1 [dasatinib], for which the “AUC of dose-response viability curve” value in the assay on ACHN [1] amounted to 1.26; in the assay on CAKI-1 [2] it was 1.59; in the assay with SN12C [3], 1.34; with 786-O [4], 1.26; in the assay with UO-31 [5] it was 2.06; with A498 [6], 1.6. The entries for the “AUC of dose-response viability curve” value with 769-P [7] and in the assay on TK-10 [8] were 2.04 and 2.02, respectively. The GI50 of drug turned out to be 157 nM in the assay on ACHN [9]; 131 nM with CAKI-1 [10]; 134 nM in the assay with SN12C [11]; 55.8 nM in the assay with 786-O [12]; 429 nM in the assay with UO-31 [13]; 129 nM with A498 [14]. Further, the GI50 of drug in the assay on 769-P [15] is 1190 nM; in the assay with TK-10 [16], 476 nM. The “minimum viability across doses” value with ACHN [17] is 0.00387; in the assay on CAKI-1 [18], 0.034; with SN12C [19] it was 0.0108; in the assay on 786-O [20], 0.00565; with UO-31 [21] it was 0.013; with A498 [22], 0.00993. Also, the “minimum viability across doses” value with 769-P [23] was found to be 0.0223; in the assay on TK-10 [24], 0.189.
